One may read the IC50 as the concentration needed to halve the response being measured. By GI50 is commonly meant the concentration at which growth is held to half of that of the control.

The source of these data is patent US11161845B2, “Pyrrolopyridine-aniline compounds for treatment of dermal disorders” (Nflection Therapeutics, Inc., priority 2017, dated 2021).

Each structure is given as a SMILES string. Read-outs that look alike come from different tables or passages of the source.

A short description of data set [1]: S9 stability assay, human liver S9 fraction. It is filed as in vitro ADME. The note with it: for half-life at 1 μM / microsomal CLint at 1 μM: pH 7.4. As for the experimental part:
Compounds were assessed for metabolic stability in human skin by assessing their rate of disappearance from human S9 skin fraction. Similarly, compounds were assessed for metabolic stability in human liver by assessing their rate of disappearance from human S9 liver fraction. The protocol below can be used to assess the difference between skin and hepatic metabolism.
The assay was carried out in 96-well microtiter plates at 37° C. Reaction mixtures (25 μL) contained a final concentration of 1 μM test compound, 2 mg/mL liver or skin S9 protein, and 1 mM NADPH in buffer (100 mM potassium phosphate, pH 7.4 buffer with 1 mM EDTA, 3 mM MgCl2). At each of the time points (0, 15, 30, and 60 minutes), 150 μL of quench solution (100% acetonitrile with 0.1% formic acid) with internal standard was transferred to each well. Besides the zero minute controls, mixtures containing the same components except the NADPH were also prepared as the negative control. Verapamil or testosterone was included as a positive control to verify assay performance. Plates were sealed and centrifuged at 4° C. for 15 minutes at 4000 rpm. The supernatant was transferred to fresh plates for LC/MS/MS analysis.
All samples were analyzed on LC/MS/MS using an AB Sciex API 4000 instrument, coupled to a Shimadzu LC-20AD LC Pump system. Analytical samples were separated using a Waters Atlantis T3 dC18 reverse phase HPLC column (20 mm×2.1 mm) at a flow rate of 0.5 mL/min. The mobile phase consisted of 0.1% formic acid in water (solvent A) and 0.1% formic acid in 100% acetonitrile (solvent B).
The extent of metabolism was calculated as the disappearance of the test compound, compared to the 0-min control reaction incubations. Initial rates were calculated for the compound concentration and used to determine t1/2 values and subsequently, the intrinsic clearance, CLint=(0.693) (1/t1/2 (min)) (mL incubation/mg of S9 protein).

A further data set has as its target T1, MEK1 (Homo sapiens, UniProt Q02750).
T1 construct: N-terminal His-tagged recombinant human full length protein; His (N); purchased Invitrogen PV3303; host or cells: insect cells
Nature of the data set: MEK inhibition assay, Biological Example 1a (33P-ATP, P81 filter-binding). To be noted: read-out: Assay 1: biochemical MEK IC50. The protocol:
MEK1 inhibitory activity of compounds were tested using the following procedure. […] Activated in vitro by RAF1. MW=49.2 kDa, GenBank Accession No. NP_002746. • Substrate: 5 μM ERK2 (K52R), • Kinase-dead mutant, (GenBank Accession No. NM_0011949), aa2-358 with N-terminal His6 tag, MW=43.63 kDa, expressed in E. coli.
The substrate was prepared in freshly prepared Reaction Buffer. The kinase was delivered into the substrate solution and gently mixed. Test compounds were delivered in 100% DMSO into the kinase reaction mixture by Acoustic technology (Echo550; nanoliter range), and incubated for 20 min at room temperature. ^33P-ATP was delivered into the reaction mixture to initiate the reaction. The reaction mixture was incubated for 2 hours at room temperature. Kinase activity was detected by P81 filter-binding method.

Another data set concerns HCT116 cells. Nature of the data set: HCT116 (Kras) GI50 cell-based assay (Cell Titer-Glo). To be noted: Homo sapiens, HCT-116; 72 hours; read-out: Assay 3: HCT116 (Kras) GI50. As for the experimental part: (§1) Alternatively, the following procedure can be used to measure cell-based activity. Test compounds were dissolved in DMSO in 10 mM stock. Cell Titer-Glo® 2.0 Luminescent cell viability assay reagent was purchased from Promega (Madison, Wis.). A375 and HCT116 cell lines were purchased from American Type Culture Collection (Manassas, Va.). For A375 cells, cell culture media was DMEM+10% FBS. For HCT116 cells, cell culture media was McCoy's 5A+10% FBS. All media were supplemented with 100 μg/mL of penicillin, and 100 μg/mL of streptomycin. Cultures were maintained at 37° C. in a humidified atmosphere of 5% CO2 and 95% air.
(§2) Test compounds were diluted in DMSO solution with 10-dose and 3-fold dilutions in a source plate starting at 10 mM. 25 nL of each test compound was delivered from the source plate to each well of the 384-well cell culture plates (T=Final) by Echo 550. 25 μL of culture medium containing 2000 of A375 or HCT116 cells was added to each of the wells in duplicates of the cell culture plates (T=0 and T=Final). 25 μL of Cell Titer Glo 2.0 reagent was added to each well of cell culture plate (T=0). The contents were mixed on an orbital shaker for 2 min and incubated at room temperature for 15 min to stabilize luminescent signal. Luminescence was recorded by Envision 2104 Multilabel Reader (PerkinElmer, Santa Clara, Calif.). The number of viable cells in culture was determined based on quantitation of the ATP present in each culture well. The cells in cell culture plate (T=Final) were incubated with the compounds at 37° C., 5% CO2 for 72 hours. 25 μL of Cell Titer Glo 2.0 reagent was added to each well. The contents were mixed on an orbital shaker for 2 min and incubated at room temperature for 15 min to stabilize luminescent signal. Luminescence was recorded by Envision 2104 Multilabel Reader (PerkinElmer, Santa Clara, Calif.). The number of viable cells in culture was determined based on quantitation of the ATP present in each culture well. The G150 curves were plotted using the GraphPad Prism 4 program based on a sigmoidal dose-response equation Y=Bottom+(Top−Bottom)/(1+10^((Log EC50−X)*HillSlope)). All parameters in the equation were calculated by GraphPad Prism 4 program. […] Accordingly, GI50 is the value of 10^X, where X was calculated by the Curve Fitting Equation when Y=50 using Excel.

Another data set relates to A375 cells. The experiment in a line: A375 (BRAF) GI50 cell-based assay (Cell Titer-Glo). To be noted: Homo sapiens, A-375; 72 hours; read-out: Assay 2: A375 (BRAF) GI50. The protocol: as §1, §2
For orientation: In ATP-based viability assays light output follows the ATP content of the culture.

The next data set addresses T2, MAP2K1 (MEK1) (Homo sapiens, UniProt Q02750).
T2 construct: purchased ThermoFisher
The experiment in a line: MEK inhibition assay, Biological Example 1b (Z'-LYTE). To be noted: Biological Example 1b (compounds 8, 10, 12 and 13); read-out: Assay 1: biochemical MEK IC50. As for the experimental part: MEK1 inhibitory activity of compounds were tested using the following procedure (protocol available at thermofisher.com/content/dam/LifeTech/migration/files/drug-discovery/pdfs.par.60256.file.dat/20130430%20ssbk%20customer %20protocol%20and %20assay%20conditions.pdf). The Z′-LYTE biochemical assay (ThermoFisher) employs a fluorescence-based, coupled-enzyme format and is based on the differential sensitivity of phosphorylated and non-phosphorylated peptides to proteolytic cleavage.
Test compounds in 100% DMSO were screened in 1% DMSO (final) in the well. For 10 point titrations, 3-fold serial dilutions are conducted from the starting concentration of 30 μM.
After the 1 hour incubation, 5 μL of a 1:1024 dilution of Development Reagent A (available from Invitrogen, catalog no. PV3295) was added.
ATP solutions were diluted to a 4× working concentration in Kinase Buffer (50 mM HEPES pH 7.5, 0.01% BRIJ-35, 10 mM MgCl2, 1 mM EGTA). ATP Km apparent was previously determined using a Z′-LYTE assay. The Development Reagent was diluted in Development Buffer (available from Invitrogen, catalog no. P3127).
Assay Protocol: 2.5 μL of 4× test compound or 100 nL of 100× Test Compound plus 2.4 μL Kinase Buffer, 5 μL of the 2× Peptide/Kinase Mixture, 2.5 μL of 4×ATP Solution were added to the plates and placed on a shake plate for 30-seconds. The kinase reaction was allowed to proceed for 60-minute at room temperature, before 5 μL of Development Reagent Solution was added, and the mixture agitated for 30-seconds on a shake plate. The mixture was incubated for 60-minute at room temperature. Fluorescence was measured using a plate reader and the data were analyzed.
This control yielded 100% cleaved peptide in the Development Reaction. The 100% Phosphorylation Control, which consisted of a synthetically phosphorylated peptide of the same sequence as the peptide substrate, was designed to allow for the calculation of percent phosphorylation. This control yielded a very low percentage of cleaved peptide in the Development Reaction. The 0% Phosphorylation and 100% Phosphorylation Controls allow for the calculation of the percent phosphorylation achieved in a specific reaction well.
The minimum emission ratio in a screen was established by the 0% Inhibition Control, which contained active kinase. This control was designed to produce a 10-50% phosphorylated peptide in the Kinase Reaction. […]
A known inhibitor control standard curve, 10 point titration, was run for each individual kinase on the same plate as the kinase to ensure the kinase was inhibited within an expected IC50 range previously determined.
The following controls are prepared for each concentration of Test Compound assayed. […] The expected value for a non-fluorescence compound should be 0%. […]
The data in Table A was calculated. […]

The mark [2] stands for this setting: human, liver S9 fraction, Table 2, 1 μM, 2 mg/mL S9 protein, NADPH, read-out: Assay 4: human liver S9 half-life.
The mark [3] stands for this setting: human, liver S9 fraction, Table 2, 1 μM, 2 mg/mL S9 protein, NADPH, read-out: Assay 5: human liver S9 instrinsic clearance value.

T2 sequence (Q02750 whole entry): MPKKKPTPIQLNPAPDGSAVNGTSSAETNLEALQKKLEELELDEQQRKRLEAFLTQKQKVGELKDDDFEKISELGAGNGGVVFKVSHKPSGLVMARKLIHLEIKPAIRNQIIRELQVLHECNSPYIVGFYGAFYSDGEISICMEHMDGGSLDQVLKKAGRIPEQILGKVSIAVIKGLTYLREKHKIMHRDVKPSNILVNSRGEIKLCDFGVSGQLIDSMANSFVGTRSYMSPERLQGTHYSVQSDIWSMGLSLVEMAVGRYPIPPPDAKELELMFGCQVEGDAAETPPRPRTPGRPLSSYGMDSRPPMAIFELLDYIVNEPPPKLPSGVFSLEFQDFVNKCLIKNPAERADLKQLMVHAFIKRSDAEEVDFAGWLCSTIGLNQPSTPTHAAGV
T1 sequence (Q02750 whole entry): as above

For the compound `Cn1c(Nc2ccc(I)cc2F)c(C(=O)NO)c2cccnc21` [Example 4, 2-((2-Fluoro-4-iodophenyl)amino)—N-hydroxy-1-methyl-1H-pyrrolo[2,3-b]pyridine-3-carboxamide], the half-life at 1 μM in data set [1] (setting [2]) came out at 21 min. Besides, in data set [1] (setting [3]), the microsomal CLint at 1 μM amounted to 16.5 µL/min/mg. The concentration for half-maximal inhibition (IC50) at MEK1 turned out to be 671 nM. Moreover, the GI50 with HCT116 cells amounted to 5010 nM; with A375 cells, 809 nM.
For `Cn1c(Nc2ccc(I)cc2F)c(C(=O)NOC[C@H](O)CO)c2cccnc21` [Example 6, (R)—N-(2,3-Dihydroxypropoxy)-2-((2-fluoro-4-iodophenyl)amino)-1-methyl-1H-pyrrolo[2,3-b]pyridine-3-carboxamide] the same measures were 90 min, 3.85 µL/min/mg, 371 nM, 448 nM and 81 nM.
Regarding `Cn1c(Nc2ccc(I)cc2F)c(C(=O)NOCC2CC2)c2cccnc21` [Example 7, N-(Cyclopropylmethoxy)-2-((2-fluoro-4-iodophenyl)amino)-1-methyl-1H-pyrrolo[2,3-b]pyridine-3-carboxamide], in data set [1] (Table 2, 1 μM, 2 mg/mL S9 protein, NADPH), the “Assay 5: human liver S9 instrinsic clearance value” is reported as 44.80 μL/min/mg protein. In addition, in data set [1] (Table 1, human liver S9 fraction, read-out: CLint), the microsomal CLint at 1 μM is 44.8 µL/min/mg. Further, the half-life at 1 μM in data set [1] (Table 1, human liver S9 fraction, read-out: Liver S9 t1/2) was found to be 8 min. Besides, on MEK1, the IC50 was 260 nM. Moreover, the GI50 in the data set on HCT116 cells and with A375 cells was 346 nM each time.
Consider `COc1cnc2c(c1)c(C(=O)NOCCO)c(Nc1ccc(I)cc1F)n2C` [Example 8, 2-((2-Fluoro-4-iodophenyl)amino)—N-(2-hydroxyethoxy)-5-methoxy-1-methyl-1H-pyrrolo[2,3-b]pyridine-3-carboxamide], for which the IC50 on MAP2K1 (MEK1) was determined as 243 nM. Further, the half-life at 1 μM in data set [1] (setting [2]) came out at 34 min. In data set [1] (setting [3]), the microsomal CLint at 1 μM amounted to 10.3 µL/min/mg.
In the same order, the values of `Cn1c(Nc2ccc(I)cc2F)c(C(=O)NC[C@H](O)CO)c2cccnc21` [Example 10, (S)—N-(2,3-dihydroxypropyl)-2-((2-fluoro-4-iodophenyl)amino)-1-methyl-1H-pyrrolo[2,3-b]pyridine-3-carboxamide] are 1770 nM, 96 min and 3.59 µL/min/mg.
Consider `Cn1c(Nc2ccc(I)cc2F)c(C(=O)NC[C@@H](O)CO)c2cccnc21` [Example 12, (R)—N-(2,3-dihydroxypropyl)-2-((2-fluoro-4-iodophenyl)amino)-1-methyl-1H-pyrrolo[2,3-b]pyridine-3-carboxamide], for which the IC50 on MAP2K1 (MEK1) worked out at 1780 nM. In addition, the half-life at 1 μM in data set [1] (setting [2]) amounted to 105 min. In data set [1] (setting [3]), the microsomal CLint at 1 μM is 3.29 µL/min/mg.
As for `Cn1c(Nc2ccc(I)cc2F)c(C(N)=O)c2cccnc21` [Example 13, 2-(2-Fluoro-4-iodoanilino)-1-methyl-1H-pyrrolo[2,3-b]pyridine-3-carboxamide], the IC50 at MAP2K1 (MEK1) was determined as 9610 nM. In data set [1] (setting [2]), the half-life at 1 μM came out at 23 min. For the same compound, in data set [1] (setting [3]), the microsomal CLint at 1 μM worked out at 15.4 µL/min/mg.
